Eight molecules from ChEMBL document CHEMBL1201862, “PubChem BioAssay data set” (2004) can be followed below.

The structures appear in SMILES notation.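 In this assay, cells in 96-well plates receive the compound at five concentrations for 48 hours. Endpoints are linearly interpolated between the surrounding concentrations. GI50 is the concentration that inhibits growth by half.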 Calls of active or inactive are those of the source. Cut-off read from the data, not from the text of the source: active = GI50 up to about 1.1 µM and inactive = higher. Bounds are passed on as bounds.

Some test systems named below: A549; ACHN; CCRF-CEM; EKVX; HOP-92; MDA-N; MOLT-4; OVCAR-4; OVCAR-5; OVCAR-8; PC-3; SK-MEL-28; SN12C; SR; SW-620; UACC-62; KM12; OVCAR-3; LOX IMVI; T47D.
What all share (experiment): NCI-60 cell line screen, 48 h

Consider `COCOc1ccc(C(=O)C(C)c2ccc(OCOC)cc2OCOC)c(O)c1` (stereo not given), for which the GI50 in the test with A549 was 97.3 µM (inactive); with ACHN it was > 100 µM (inactive); with CCRF-CEM, 83.4 µM (inactive); in the test with EKVX, 83.6 µM (inactive); with HOP-92 it was 48.1 µM (inactive); with MDA-N it was 52.8 µM (inactive). Besides, the GI50 in the test with MOLT-4 is 42.6 µM (inactive); in the test on OVCAR-4 it was > 100 µM (inactive); in the test with OVCAR-5, > 100 µM (inactive); in the test on OVCAR-8, > 100 µM (inactive); in the test on PC-3, 48.9 µM (inactive); in the test on SK-MEL-28, > 100 µM (inactive). Moreover, the GI50 with SN12C was > 100 µM (inactive); in the test on SR, 40.7 µM (inactive); with SW-620, > 100 µM (inactive); with UACC-62, > 100 µM (inactive).
Take `N=C(N)C1CN(CCc2c[nH]cn2)C(=O)NC1=O` (stereo not given): the GI50 in the test with A549, in the test with ACHN, in the test with CCRF-CEM, with EKVX, in the test with HOP-92 and with KM12 was > 100 µM (inactive) in each case. In addition, the GI50 in the test with MDA-N, in the test with MOLT-4, in the test on OVCAR-3, in the test on OVCAR-4, in the test on OVCAR-5 and with OVCAR-8 was > 100 µM (inactive) each time. Also, the GI50 with PC-3, in the test on SK-MEL-28, in the test with SN12C, with SR, in the test with SW-620 and in the test on UACC-62 was > 100 µM (inactive) in each case.
Turning to `Cc1ccc2oc(=O)c(C(=O)Nc3nc(C45CC6CC(CC(C6)C4)C5)cs3)cc2c1`, the GI50 with A549, in the test on ACHN, in the test on CCRF-CEM, in the test on EKVX, in the test with HOP-92 and in the test with KM12 was > 100 µM (inactive) each time. In addition, the GI50 with LOX IMVI, in the test on MDA-N, in the test on MOLT-4, with OVCAR-3, in the test on OVCAR-4 and with OVCAR-5 was > 100 µM (inactive) each time. In addition, the GI50 with OVCAR-8, in the test on PC-3, in the test on SK-MEL-28, in the test on SN12C, in the test on SR and in the test with SW-620 was > 100 µM (inactive) each time.
Regarding `CC[C@H]1C=CCC[C@@]2(C[C@@H]3CC[C@H]4[C@H](C(=O)OCCCCCCCCCCCCCCCC(=O)N(CCCN)C[C@@H](O)CCN)[C@]5(CCC[C@@H](C)O5)NC(=[N+]34)N2)O1`, the GI50 with A549 was 0.48 µM (active); with ACHN it was 0.513 µM (active); in the test on EKVX, 1.08 µM (active); in the test on HOP-92, 0.318 µM (active); with KM12 it was 0.509 µM (active); with LOX IMVI, 0.36 µM (active). In addition, the GI50 was 0.407 µM (active) in the test with MDA-N; 0.27 µM (active) in the test with MOLT-4; 1.41 µM (inactive) in the test on OVCAR-3; 0.863 µM (active) in the test on OVCAR-4; 0.429 µM (active) in the test with OVCAR-5; 0.693 µM (active) in the test on OVCAR-8. The GI50 in the test with PC-3 is 0.7 µM (active); with SK-MEL-28, 1.28 µM (inactive); in the test on SN12C, 0.776 µM (active); with SR, 0.323 µM (active); in the test with SW-620 it was 0.604 µM (active); with UACC-62, 0.202 µM (active).
`CC(=O)c1cc2c(s1)C(=O)c1sccc1C2=O`: the GI50 in the test on A549 was 0.207 µM (active); in the test with ACHN, 0.0209 µM (active); with CCRF-CEM, 0.0392 µM (active); in the test with EKVX, 0.118 µM (active); in the test with HOP-92, 0.294 µM (active); in the test on KM12, 0.118 µM (active). Besides, the GI50 is 0.0102 µM (active) in the test with LOX IMVI; 0.0486 µM (active) in the test on MOLT-4; < 0.014 µM (active) in the test on OVCAR-3; 0.0706 µM (active) in the test on OVCAR-4; 0.0664 µM (active) in the test with OVCAR-5; 0.0738 µM (active) in the test on OVCAR-8. In addition, the GI50 was 0.0568 µM (active) in the test on PC-3; 0.014 µM (active) in the test on SK-MEL-28; 0.0156 µM (active) in the test with SN12C; 0.0133 µM (active) in the test on SR; 0.0569 µM (active) in the test on SW-620; 0.222 µM (active) in the test on T47D. Further, in the test with UACC-62, the GI50 was 0.0333 µM (active).
For the molecule `NN/C(=N\S(=O)(=O)c1cc2ccccc2s1)Nc1ccc(Cl)cc1`, the GI50 is 19.4 µM (inactive) with A549; 23.1 µM (inactive) in the test with ACHN; 19.2 µM (inactive) in the test on EKVX; 19 µM (inactive) in the test with HOP-92; 19.1 µM (inactive) in the test on KM12; 20.8 µM (inactive) in the test on LOX IMVI. Further, the GI50 was 18.9 µM (inactive) in the test on MOLT-4; 18.9 µM (inactive) with OVCAR-3; 17.5 µM (inactive) in the test on OVCAR-4; 21.1 µM (inactive) with OVCAR-5; 22.4 µM (inactive) with OVCAR-8; 22.2 µM (inactive) in the test on PC-3. Besides, the GI50 in the test with SK-MEL-28 was 25.1 µM (inactive); with SN12C it was 22 µM (inactive); with SR it was 40.1 µM (inactive); in the test on SW-620, 23.1 µM (inactive); in the test on T47D it was 17.8 µM (inactive); in the test on UACC-62, 17.5 µM (inactive).
For `CN(C)CCNC(=O)c1ccc2nc3c(nc2c1)C(=O)c1ccccc1-3`, the GI50 in the test with A549 was > 100 µM (inactive); in the test on ACHN, 47.1 µM (inactive); with CCRF-CEM, 9.75 µM (inactive); with EKVX it was > 100 µM (inactive); in the test on HOP-92 it was 57.4 µM (inactive); in the test with KM12, 81.8 µM (inactive). The GI50 in the test on LOX IMVI is 29.9 µM (inactive); in the test on MDA-N, 18.2 µM (inactive); in the test on MOLT-4, 12.9 µM (inactive); in the test with OVCAR-3 it was 55 µM (inactive); in the test on OVCAR-4 it was 32.8 µM (inactive); with OVCAR-5, > 100 µM (inactive). Besides, the GI50 in the test on OVCAR-8 is 36.5 µM (inactive); with PC-3, 45 µM (inactive); in the test on SK-MEL-28, > 100 µM (inactive); in the test with SN12C it was 68.5 µM (inactive); in the test on SR, 18.1 µM (inactive); with SW-620, 34.2 µM (inactive). Moreover, the GI50 in the test with UACC-62 was 46.5 µM (inactive).
As for `CCCc1ccc(OCC(=O)N/N=C/c2c(-c3ccccc3)[nH]c3ccccc23)cc1`, the GI50 with A549 is 8.17 µM (inactive); in the test with ACHN, 13.1 µM (inactive); in the test on CCRF-CEM, 5.98 µM (inactive); with EKVX, 12.7 µM (inactive); in the test on HOP-92, 13.7 µM (inactive); with KM12, 4.91 µM (inactive). The GI50 was 9.38 µM (inactive) in the test with LOX IMVI; 5.01 µM (inactive) in the test on MOLT-4; 24.5 µM (inactive) with OVCAR-3; 8.32 µM (inactive) in the test with OVCAR-4; 22.4 µM (inactive) in the test with OVCAR-5; 9.08 µM (inactive) in the test on OVCAR-8. Further, the GI50 is 5.98 µM (inactive) in the test on PC-3; 20.1 µM (inactive) in the test on SK-MEL-28; 14 µM (inactive) in the test on SN12C; 3.85 µM (inactive) in the test with SR; 10.6 µM (inactive) with SW-620; 5.77 µM (inactive) in the test with T47D. Besides, in the test with UACC-62, the GI50 was 11.9 µM (inactive).
